From patent publication US9248142B2, “Non-hormonal female contraceptive” (University of Florida Research Foundation, Inc., priority 2010, dated 2016)
Read-outs that look alike come from different tables or passages of the source.

Columns and labels:
[1] = animal metabolic and nutritional studies, human nutritional and cancer studies/clinical trials; cited from earlier work
Foxo3a mRNA [2] = experiment: Pilot study in mice injected IP daily for two weeks: ovary Foxo3a mRNA by real-time RT-PCR; format: in vivo; conditions: for Foxo3a mRNA levels in ovary, increase: two weeks, 5-week-old mice
Description: (§1) Not to be bound to any particular mechanism, it is believed that in one aspect of the present invention, by administering a therapeutically effective amount of the non-hormonal contraceptive composition to a female subject, cellular signals are induced activating a regulatory factor which blocks maturation of the […] and suppresses ovulation. In one example, a pilot study was conducted in which 5-week-old mice were intraperitoneally (IP) injected daily with 2-DG for two weeks. To determine an effective dose, 100, 300 and 600 mg/kg 2-DG was tested, with 6 animals in each treated group and 6 mice in the control group (0) injected with PBS. Following the two week study, the mice were sacrificed and the ovaries removed for mRNA and histological analyses. […] The contralateral ovary was used for histological analysis of the total numbers of follicle types in the entire ovary. Ovaries were fixed in 10% neutral buffered formalin, embedded in paraffin, then serially sectioned at 8 μm and stained with hematoxylin. Follicles were counted in every fifth section with random start. Follicles were classified following Pedersen and Peters guidelines. Most relevant to the data presented here, type 3a and 3b follicles were classified as having a single layer of granulosa cells surrounding the oocyte, and the two were distinguished from each other by the number of granulosa cells in that single layer. […] Only follicles containing an oocyte with a clearly visible nucleus were scored, to ensure that each follicle was counted only once. It should be noted that type 3a follicles are the first stage of folliculogenesis from the primordial follicle, the dormant stage at which FOXO3a acts as a brake. After follicles were counted in each fifth section, the total number of each type was multiplied by a correction factor of five to estimate total number of follicles in each ovary. The collective data is shown in the bar graph in FIG. 5. […] This is particularly advantageous as it allows lower dosages of one of the analogs or dosages of two or more analogs in therapeutic compositions. […]

FOXO3a protein = experiment: Immunoblot analysis of FOXO3a protein levels in SKOV3 cells; format: cell-based, human; conditions: vs FED/MEM control
Description: In another embodiment, the subject invention relates to a method for decreasing the fertility of a subject, comprising administering a therapeutically effective amount of a glucose analog to the subject, wherein the glucose analog comprises one or more of (i) 2-deoxyglucose (2DG) or a combination of 2DG with chemical derivatives of 2DG with similarly documented ovarian activity; (ii) D-mannoheptulose; or (iii) 5-thio-D-glucose; and the administering step inhibits ovulation in the female subject. In a further embodiment, the glucose analog elevates the production of FOXO3a. In yet a further embodiment, FOXO3a prevents activation of oocytes during follicle development. In another embodiment, a therapeutically effective amount of at least one glucose analog is co-administered to the subject. In one example, FOXO3a mRNA and protein levels are induced in response to amino acid and glucose_deprivation in human ovarian carcinoma (SKOV3) cells. In order to establish a connection between FOXO3a and glucose deprivation, one example was used in which human ovarian carcinoma (SKOV3) cells were treated with 2-deoxyglucose (2-DOG or 2-DG) followed by mRNA analysis by real-time RT-PCR (FIG. 1) and immunoblot analysis (FIG. 2). […] The fold increases were determined using a ΔΔCT method with cyclophilin A as the internal reference gene for each sample. […]

FOXO3a = experiment: Mouse ovarian organ culture, FOXO3a mRNA and protein expression; format: cell-based
Foxo3a mRNA [3] = experiment: Foxo3a mRNA by real-time RT-PCR in SKOV3 cells treated with 2-deoxyglucose; format: cell-based, human
Description: In another embodiment, the subject invention relates to a method for decreasing the fertility of a subject, comprising administering a therapeutically effective amount of a glucose analog to the subject, wherein the glucose analog comprises one or more of (i) 2-deoxyglucose (2DG) or a combination of 2DG with chemical derivatives of 2DG with similarly documented ovarian activity; (ii) D-mannoheptulose; or (iii) 5-thio-D-glucose; and the administering step inhibits ovulation in the female subject. In a further embodiment, the glucose analog elevates the production of FOXO3a. In yet a further embodiment, FOXO3a prevents activation of oocytes during follicle development. In another embodiment, a therapeutically effective amount of at least one glucose analog is co-administered to the subject. In one example, FOXO3a mRNA and protein levels are induced in response to amino acid and glucose_deprivation in human ovarian carcinoma (SKOV3) cells. In order to establish a connection between FOXO3a and glucose deprivation, one example was used in which human ovarian carcinoma (SKOV3) cells were treated with 2-deoxyglucose (2-DOG or 2-DG) followed by mRNA analysis by real-time RT-PCR (FIG. 1) and immunoblot analysis (FIG. 2). 2-DG has been effectively employed as an alternative to glucose (deprivation) depletion. […] The fold increases were determined using a ΔΔCT method with cyclophilin A as the internal reference gene for each sample. […] Control cells (FED/MEM) were given complete media.

type 3a follicles = experiment: Pilot study in mice injected IP daily for two weeks: histological count of follicle types per ovary; format: in vivo; conditions: for Reduction in number of type 3a follicles: two weeks, vs PBS controls
Description: as §1

[4] = cited from earlier work
[5] = women, cited from earlier work
[6] = preliminary dose response studies, mice injected for two weeks

| Structure (SMILES) | Side effects [1] | Foxo3a mRNA levels in ovary, increase (Foxo3a mRNA [2]; 100 mg/kg IP daily) [fold] | Foxo3a mRNA levels in ovary, increase (Foxo3a mRNA [2]; 600 mg/kg IP daily) [fold] | Increase in mRNA synthesis of FOXO3a in the ovary (Foxo3a mRNA [2]; [6]) | Foxo3a protein levels (FOXO3a protein) | FOXO3a mRNA and protein expression (FOXO3a) | Duration of Foxo3a mRNA induction (Foxo3a mRNA [3]; SKOV3 cells) | Foxo3a mRNA induction (Foxo3a mRNA [3]; SKOV3 cells, by 4 h, ΔΔCT vs cyclophilin A) | FOXO3a mRNA and protein expression (Foxo3a mRNA [3]; human ovarian carcinoma cells in culture) | Reduction in number of type 3a follicles (type 3a follicles; 100 mg/kg IP daily) [%] | Reduction in number of type 3a follicles (type 3a follicles; 600 mg/kg IP daily) [%] | Decrease in maturation of primary follicles (type 3a follicles; [6]) | Solubility in aqueous solutions [4] | Loss in bone mineral density ([5]; after 24 months of use, average) [%] | Loss in bone mineral density ([5]; between months 12 and 24) [%] |
| --- | --- | --- | --- | --- | --- | --- | --- | --- | --- | --- | --- | --- | --- | --- | --- |
| O=CC[C@@H](O)[C@H](O)[C@H](O)CO [2-DG, 2-deoxyglucose] | no documented side effects | ~4 | ~2.75 | 2-4 fold | increased | specific induction | maintained out to 24 h | approximately 2.5 fold | specific induction | ~60 | 32 | 32-60% | freely soluble |  |  |
| N[C@H](CO)Cc1c[nH]cn1 [His-OH, histidinol, reference compound] |  |  |  |  | increased |  |  |  |  |  |  |  |  |  |  |
| CC(=O)O[C@]1(C(C)=O)CC[C@H]2[C@@H]3C[C@H](C)C4=CC(=O)CC[C@]4(C)[C@H]3CC[C@@]21C [depot medroxyprogesterone acetate, medroxyprogesterone acetate] |  |  |  |  |  |  |  |  |  |  |  |  |  | 5.7 | 3.2 |
